Patent US11160826B1, “Cholesterol lowering drugs for the treatment of hepatic encephalopathy” (United States Government as represented by the Department …, priority 2017, dated 2021)
“Also recorded” adds a separate entry of the source.

Tests used:
Cyp46A1 = test: Expression of Cyp46A1 in primary cortical neuronal culture; format: cell-based, mouse; settings: 10 μM with 10 μM DCA, 24 hr
Source text: Primary cortical neurons were isolated and cultured using methodology previously described (McMillin, M. et al. (2014) Journal of hepatology 61(6): 1260-6). Primary neurons were isolated from P1 mouse pups. Mice were decapitated and whole brains were removed. The cortex was isolated and meninges and dura were removed. Cortical tissue was mechanically disrupted and filtered through a 100 μm filter. Neurons were pelleted by centrifugation at 1400 g. Neurons were suspended in media and plated on 12-well plates with 750,000 cells per well. After 24 hours, cells were washed and media was replaced and supplemented with 2% B27 growth supplement. […] At this point, cells were lysed and used for immunoblot or RTPCR analyses.
RNA was extracted from tissue or primary neurons using an RNeasy Mini Kit (Qiagen, Germantown, Md.) according to the manufacturer's instructions. Synthesis of cDNA was accomplished using a Bio-Rad iScript™ cDNA Synthesis Kit. […]
Specific antibodies against Cyp46A1 and β-actin were used. […] Data are expressed as fold change in fluorescent band intensity of target antibody divided by β-actin or GAPDH, which are used as loading controls. […] Band intensity quantifications were performed using ImageJ software.

[1] = tested on: AOM-induced acute liver failure; settings: mouse model of acute liver failure, McMillin et al. 2016; cited from earlier work
[2] = tested on: AOM-induced acute liver failure; test: Neurological score and time to coma in the AOM mouse model of acute liver failure / hepatic encephalopathy; format: in vivo, C57Bl/6 mice; settings: ICV infusion started 3 days prior to AOM; for neurological decline (neurological score): AOM-treated mice (100 mg/kg ip), 100 mg/kg; for time taken to reach hepatic coma: AOM-treated mice
Protocol: (§1) Acute liver failure and HE was induced using the hepatotoxin azoxymethane (AOM) as previously described (McMillian, M. et al. (2016) Am. J. Pathol. 186(2): 312-23; McMillin, M. et al. Front Cell Neurosci. (2017) 11: 191; McMillin, M. et al. (2014) Journal of Hepatology 6(1): 1260-6; McMillin, M. et al. (2016) J. Neuroinflammation 13(1): 198). Briefly, C57Bl/6 or Cyp7A1−/− mice were injected with AOM (100 mg/kg ip) and placed on heating pads set to 37° C. to ensure normothermia. To reduce serum and cortical bile acid levels, C57Bl/6 mice were fed a diet supplemented with 2% cholestyramine (Dyets Inc.; Bethelhem, Pa.), or the control diet AIN-93G, for 3 days prior to the injection of AOM. […] This same approach was used to infuse 2-hydroxypropyl-β-cyclodextrin (2-HβC; 6 mg/kg/day, MilliporeSigma) to inhibit cholesterol accumulation. The infusion cannulas were implanted using the co-ordinates AP −0.34, ML −1.0, DV −2.0. This surgery was performed 3 days prior to the injection of AOM to allow the mice to recover prior to the onset of acute liver failure to minimize mortality.
Starting at 12 hr after injection, mice were monitored at least every 2 hours for body temperature, weight and neurological score as previously described (McMillin, M. et al. Front Cell Neurosci. (2017) 11: 191; McMillin, M. et al. (2016) J. Neuroinflammation 13(1): 198). The neurological score was assessed by an investigator blind to the treatment groups and is a summation of the scores given for the following parameters: pinna reflex, corneal reflex, tail flexion, escape response, righting reflex and gait. Each parameter was assigned a score between 2 (normal) and 0 (absence of reflexes and presence of severe ataxia), and summed to give a neurological score out of 12. At approximately 16 hours after AOM injection, the gait of these experimental mice was further examined using ventral plane imaging technology (DigiGait, Mouse Specifics Inc, Framingham, Mass., USA) which images the underside of animals walking atop a motorized, transparent treadmill belt thereby generating digital paw prints. These paw prints were analyzed using DigiGait Analysis and Imager software (Mouse Specifics Inc, Framingham, Mass., USA) and measures of neuromuscular function were quantified, including the paw angle in fore- and hind limbs (to measure the degree of external rotation), gait symmetry (ratio of forelimb stepping frequency to hindlimb stepping frequency) and the ataxia coefficient for fore and hind limbs (calculated by [maximum stride length−minimum stride length]/average stride length). […]

[3] = tested on: AOM-induced acute liver failure; test: DigiGait ventral plane gait analysis of AOM-treated mice; format: in vivo, C57Bl/6 mice; settings: approximately 16 hours after AOM injection
Protocol: as §1
Starting at 12 hr after injection, mice were monitored at least every 2 hours for body temperature, weight and neurological score as previously described (McMillin, M. et al. Front Cell Neurosci. (2017) 11: 191; McMillin, M. et al. (2016) J. Neuroinflammation 13(1): 198). The neurological score was assessed by an investigator blind to the treatment groups and is a summation of the scores given for the following parameters: pinna reflex, corneal reflex, tail flexion, escape response, righting reflex and gait. […] These paw prints were analyzed using DigiGait Analysis and Imager software (Mouse Specifics Inc, Framingham, Mass., USA) and measures of neuromuscular function were quantified, including the paw angle in fore- and hind limbs (to measure the degree of external rotation), gait symmetry (ratio of forelimb stepping frequency to hindlimb stepping frequency) and the ataxia coefficient for fore and hind limbs (calculated by [maximum stride length−minimum stride length]/average stride length).

AOM-induced liver damage = test: Assessment of liver damage and function (H&E, plasma ALT, AST); format: in vivo, C57Bl/6 mice; settings: 20 hour post-AOM injection; central (ICV) infusion
Protocol: as §1, with “This surgery was performed 3 days prior to the injection of AOM to allow the mice to recover prior to the onset of acute liver failure to minimize mortality.” left out
Liver damage was assessed by H&E staining according to previously published protocols (McMillin, M. et al. (2017) Front Cell Neurosci. 11: 191). […]
Liver function was assessed by measuring plasma alanine aminotransferase (ALT) and aspartate aminotransferase (AST) using the IDEXX Catalyst One machine from IDEXX Laboratories, Inc (Westbrook, […].).

cholesterol = test: Measurement of brain cholesterol (total/free kit, Nile Red, Filipin III staining); format: in vivo, C57Bl/6 mice
Protocol: as §1
Total, free and esterified cholesterol was assessed in brain homogenates using a BioVision Total Cholesterol and Cholesteryl Ester Assay Kit following the instructions from the vendor. The subcellular location of cholesterol was assessed using Nile Red staining (for intracellular cholesterol (Pol, A. et al. (2001) J. Cell Biol. 152(5): 1057-70)) and Filipin III staining (for membrane bound cholesterol (Vanier and Latour (2015) Methods Cell Biol. 126: 357-75)). Briefly, mice were transcardially perfused with ice-cold phosphate buffered saline (PBS), followed by 4% paraformaldehyde (PFA) in PBS. Whole brains were rapidly removed and post-fixed in PFA overnight at 4° C. Brains were cryoprotected in 30% sucrose (in PBS) and embedded in OCT compound. Thirty micrometer sections were cut through the frontal cortex region; sections were rinsed in PBS and further fixed in 4% PFA for 10 minutes at room temperature. Free-floating sections were incubated with Filipin III (0.5 μg/mL in 10% bovine serum albumin/PBS) for 2 hours at room temperature, or with Nile Red (10 μg/mL in PBS) for 30 minutes at room temperature. Sections were washed in PBS, mounted onto microscope slides and imaged using a Bio-Rad Zoe™ Fluorescent Cell Imager (Hercules, Calif.). Field images were quantified for percent-positive area of Nile Red or Filipin III staining using ImageJ software (National Institutes of Health, Bethesda, Md.).

[4] = tested on: models of Niemann-Pick Type C disease; settings: Davidson et al. 2009; cited from earlier work
[5] = listed as 2-hydroxypropyl-cyclodextrin
[6] = AOM-treated mice, coma time point, pretreatment from 3 days prior to AOM

## C/C=C1\C(=O)C[C@H]2[C@@H]3CCC4=CC(=O)CC[C@]4(C)[C@H]3CC[C@]12C [guggulsterone, Guggulsterone]
Cyp46A1
  DCA-induced decrease of Cyp46A1 expression in primary neurons: could be prevented by pre-treatment

## C[C@H](CCC(=O)O)[C@H]1CC[C@H]2[C@@H]3[C@H](O)C[C@@H]4C[C@H](O)CC[C@]4(C)[C@H]3C[C@H](O)[C@]12C [cholic acid]
[1]
  neurological decline associated with acute liver failure (previous studies): worsened the neurological decline

## 2-hydroxypropyl-β-cyclodextrin [2-HβC]
[2]
  neurological decline (neurological score): significantly delayed the neurological decline; also recorded: reduces neurological decline
  time taken to reach hepatic coma: increased the time taken to reach hepatic coma
[2]; [5]
  neurological decline (neurological score): dramatically delayed the onset of neurological complications
  time taken to reach hepatic coma: increased the time it took the mice to reach hepatic coma
[3]
  ataxia co-efficient of fore and hind limbs: returned the ataxia co-efficient back to control levels
  gait symmetry (ratio of forelimb to hind limb stepping frequency): returned the gait symmetry to control levels
  paw angle of fore and hind limbs (degree of external rotation): reduced the paw angle of AOM-treated mice to values similar to control
AOM-induced liver damage
  AOM-induced liver damage (H&E staining, ALT, AST): does not have any hepatoprotective effects; also recorded: does not influence liver function
cholesterol; AOM-treated mice, FIG. 17 legend
  cortex cholesterol accumulation: reduced
cholesterol; [6]
  AOM-induced increase in Filipin III staining (membrane-bound cholesterol) in the cortex: attenuated the AOM-induced increase
  AOM-induced increase in Nile Red staining (intracellular cholesterol) in the cortex: attenuated the AOM-induced increase
  AOM-induced increase in free cholesterol content in the cortex: did prevent the AOM-induced buildup
  AOM-induced increase in total cholesterol content in the cortex: did prevent the AOM-induced buildup
cholesterol; vehicle-treated mice, infusion into the brain
  basal levels of cholesterol in the cortex: did not decrease
[4]
  excessive cholesterol buildup in the brain: prevent excessive cholesterol buildup in the brain
